These results are taken from patent publication US20210255195A1, “HIGH PRECISION SPECTRAL FRET ASSAYS” (Regents of the University of Minnesota, priority 2017, published 2021).

The target of data set [1] is two-color SERCA (2CS) biosensor (SERCA2a) (UniProt P16615). As to the kind of experiment: 2CS FRET biosensor in living HEK293 cells, spectral mode (spectral unmixing plate reader). The format is cell-based, human. As to conditions: for 2CS FRET hit identification: NCC screen, reproducible and dose-dependent FRET decrease.
Procedure: HEK293 cells were maintained in phenol-red-free DMEM from Gibco (Waltham, Mass.) supplemented with 2 mM GlutaMAX (Gibco), 10% fetal bovine serum (FBS) from Atlanta Biologicals (Laweranceville, Ga.), and 1 IU/mL penicillin/streptomycin (Gibco) and grown at 37° C. with 5% CO2. Stable clones expressing the FRET biosensors and corresponding donor- and acceptor-labeled control cell lines were established as described previously [3]. Briefly, cells were transfected with the recombinant DNA following established protocols lipofectaimine 3000 from Invitrogen (Carlsbad, Calif.). 48 hours post transfection the cells were placed under G418 (500 μg/mL) from Sigma (St. Louis, Mo.), antibiotic selection, and plated to allow for the growth of single colonies. Clones were isolated 2-3 weeks after transfection and antibiotic selection. […] The cell lines were expanded in T225 flasks from Corning (Corning, N.Y.), harvested by treatment with Tryple (Invitrogen), washed three times in phosphate buffer solution (PBS) with no magnesium or calcium Thermo Fischer (Waltham, Mass.)) and centrifuged at 300 g, filtered using 70 μm cell strainers (Corning), and diluted to 10^6 cells/mL using an automated countess cell counter from Invitrogen. In studies with cyan and yellow fluorescent protein biosensors, transient transfections were performed. In these studies, cells were harvested and prepared as described above, 48 hours after transfection. Cell viability was assessed using trypan blue. […]
The observed fluorescence emission spectrum F(λ) was fitted by least-squares minimization to a linear combination of component spectra
where D is donor, A is acceptor, C is cell autofluorescence, and W is water Raman, and a, b, c, d are the weighting (scalar) coefficients determined from the fit. The fitted spectrum for each well was determined using least squares minimization with Matlab (Mathworks) to solve for the scalar coefficients.
For an intramolecular FRET sensor with a 1:1 ratio of donor D and acceptor A molecules, FRET efficiency (FRET) was determined from (Eq. 10).
Data set [2] in a line: Water Raman spectrum of compound-only wells (compound aggregation). The format is physicochemical. Particulars: dose-dependent.
Source text: The high sensitivity of spectral mode is shown by the fluorescence signal of the water Raman spectrum.
Data set [3] concerns endoplasmic reticulum calcium (D1ER sensor). Briefly: D1ER cameleon calcium FRET sensor in HEK293 cells (ER calcium depletion), spectral mode. It counts as cell-based, human. As to conditions: for T50 (rate of calcium depletion): saturating drug concentrations, Hill fit of time course. Here is the method:
Investigation of a CFP and YFP FRET pair was evaluated with the well-known cameleon calcium sensor, in which the calmodulin-binding (M13) domain of myosin light chain kinase (MLCK) and calcium-binding domain of calmodulin are fused together, and located between two fluorescence proteins (eCFP/mCitrine). These calcium sensors have allowed cellular [Ca^2+] to be monitored more directly and reliably than using calcium-sensitive dyes. The endoplasmic reticulum-targeted cameleon sensor (D1ER) was selected because it is known to be sensitive to the SERCA inhibitors thapsigargin, CPA, and BHQ. Instead of detecting direct ligand binding, as in the 2CS studies reported above, the D1ER sensor can be used to monitor changes in ER calcium level. Upon SERCA inhibition, calcium is no longer pumped into the ER, leading to calcium depletion through various mechanisms including IP3-gated receptors and ryanodine receptors. D1ER senses these changes as calcium binding leads to a conformational rearrangement of the biosensors, increasing FRET between CFP and YFP. Therefore, calcium depletion due to SERCA inhibition is detected as a decrease in FRET.
A HEK293 stable clone with constitutive expression of the D1ER cameleon calcium sensor was generated using G418 antibiotic selection. […] Cells were harvested and dispensed into 384-well plates containing the same concentrations of thapsigargin, CPA, and BHQ, as previously evaluated with 2CS (FIG. 9). D1ER FRET was monitored only in spectral mode, because the CFP donor cannot be excited effectively by the 473 nm laser used in lifetime mode. ER calcium was monitored by repeatedly scanning the 384 well plate at three-minute intervals over a 120-minute period. […]
After resuspension and dilution in PBS, the cells were constantly and gently stirred using a magnetic stir bar at room temperature, keeping the cells in suspension and evenly distributed to avoid clumping. […] Concentration-response curves (CRC) of the FRET hits were assessed at multiple time points by repeatedly scanning the 384-well plates. […] The D1ER calcium sensor monitored changes in endoplasmic reticulum [Ca^2+] […] The methods and protocols for the D1ER cells were identical to those for 2CS, with the exception that they were evaluated only in spectral mode, and the 384-well plates containing compound CRCs were scanned every three minutes for two-hours.
SERCA malfunction can result in decreased ATPase activity and/or calcium pumping efficiency. ER calcium content was monitored over time using the endoplasmic-localized cameleon calcium FRET sensor (D1ER). […] Briefly, D1ER FRET changes were monitored over time by repeatedly (every 3 minutes) scanning a 384-well plate containing varying concentrations of the 2CS FRET hits. D1ER cells were assessed immediately after compound incubation. […]

The target of data set [4] is two-color SERCA (2CS) biosensor (SERCA2a) (UniProt P16615). Briefly: 2CS FRET biosensor in living HEK293 cells, fluorescence lifetime mode. It counts as cell-based, human. The procedure: HEK293 cells were maintained in phenol-red-free DMEM from Gibco (Waltham, Mass.) supplemented with 2 mM GlutaMAX (Gibco), 10% fetal bovine serum (FBS) from Atlanta Biologicals (Laweranceville, Ga.), and 1 IU/mL penicillin/streptomycin (Gibco) and grown at 37° C. with 5% CO2. Stable clones expressing the FRET biosensors and corresponding donor- and acceptor-labeled control cell lines were established as described previously. Briefly, cells were transfected with the recombinant DNA following established protocols lipofectaimine 3000 from Invitrogen (Carlsbad, Calif.). 48 hours post transfection the cells were placed under G418 (500 μg/mL) from Sigma (St. Louis, Mo.), antibiotic selection, and plated to allow for the growth of single colonies. Clones were isolated 2-3 weeks after transfection and antibiotic selection. The stability of each clone was assessed by flow cytometry and confocal microscopy (data not shown). The cell lines were expanded in T225 flasks from Corning (Corning, N.Y.), harvested by treatment with Tryple (Invitrogen), washed three times in phosphate buffer solution (PBS) with no magnesium or calcium Thermo Fischer (Waltham, Mass.)) and centrifuged at 300 g, filtered using 70 μm cell strainers (Corning), and diluted to 10^6 cells/mL using an automated countess cell counter from Invitrogen. In studies with cyan and yellow fluorescent protein biosensors, transient transfections were performed. In these studies, cells were harvested and prepared as described above, 48 hours after transfection. Cell viability was assessed using trypan blue.
Cells were dispensed using a Multidrop Combi liquid dispenser from Thermo Fischer (Pittsburgh, Pa.) at a density of 10^6/mL. Compounds were diluted in DMSO and dispensed either using a Mosquito liquid handeler from TTP Labtech (Melbourn, UK) or a Mantis liquid dispenser from Formulatrix (Bedford, Mass.). The known SERCA inhibitors thapsigargin (TG, Sigma), 1,4-dihydroxy-2,5-di-tert-butylbenzene (BHQ) from Tocris (Minneapolis, Minn.), and cyclopiazonic acid (CPA, Tocris) were diluted at 50× concentrations and subsequently serially diluted in 96-well mother plates prior to liquid dispensing. […]
In its spectral unmixing plate reader (SUPR) mode, the instrument provides direct high-throughput detection of the complete fluorescence emission spectrum, (emission vs wavelength), with excitation provided by a 473 nm continuous wave laser. Spectra are recorded using a grating-based fiber optic input spectrograph equipped with linear-array CCD detector (Sony ILX511B). The recorded wavelength range in these experiments spanned the entire visible spectrum, but only the 400-700 nm range was used in the data analysis. In lifetime mode, the full nanosecond-resolved fluorescence emission waveform is acquired following excitation with a 473 nm pulsed microchip laser. […]
Fluorescence decay waveforms for lifetime determination, were detected directly as previously described. […] A full fluorescence decay waveform was detected in response to each laser pulse over a 128 ns time window, using a photomultiplier module from Hamamatsu (Cat #H10720-210), and a proprietary transient digitizer from Fluorescence Innovations (Minneapolis, Minn.). A 488 nm long-pass filter from Semrock (Rochester, N.Y.) and 517/20 bandpass emission filter (lifetime mode), were used, ensuring that only emission from the GFP donor was detected. […]

Data set [5] has as its target SERCA2a (Homo sapiens, UniProt P16615). Particulars: binding to SERCA2a, literature; cited from earlier work.
In data set [6] the test system is cytosolic calcium. Particulars: literature; cited from earlier work.

Sequence of SERCA2a (P16615 1-997 isoform P16615-2, species assumed): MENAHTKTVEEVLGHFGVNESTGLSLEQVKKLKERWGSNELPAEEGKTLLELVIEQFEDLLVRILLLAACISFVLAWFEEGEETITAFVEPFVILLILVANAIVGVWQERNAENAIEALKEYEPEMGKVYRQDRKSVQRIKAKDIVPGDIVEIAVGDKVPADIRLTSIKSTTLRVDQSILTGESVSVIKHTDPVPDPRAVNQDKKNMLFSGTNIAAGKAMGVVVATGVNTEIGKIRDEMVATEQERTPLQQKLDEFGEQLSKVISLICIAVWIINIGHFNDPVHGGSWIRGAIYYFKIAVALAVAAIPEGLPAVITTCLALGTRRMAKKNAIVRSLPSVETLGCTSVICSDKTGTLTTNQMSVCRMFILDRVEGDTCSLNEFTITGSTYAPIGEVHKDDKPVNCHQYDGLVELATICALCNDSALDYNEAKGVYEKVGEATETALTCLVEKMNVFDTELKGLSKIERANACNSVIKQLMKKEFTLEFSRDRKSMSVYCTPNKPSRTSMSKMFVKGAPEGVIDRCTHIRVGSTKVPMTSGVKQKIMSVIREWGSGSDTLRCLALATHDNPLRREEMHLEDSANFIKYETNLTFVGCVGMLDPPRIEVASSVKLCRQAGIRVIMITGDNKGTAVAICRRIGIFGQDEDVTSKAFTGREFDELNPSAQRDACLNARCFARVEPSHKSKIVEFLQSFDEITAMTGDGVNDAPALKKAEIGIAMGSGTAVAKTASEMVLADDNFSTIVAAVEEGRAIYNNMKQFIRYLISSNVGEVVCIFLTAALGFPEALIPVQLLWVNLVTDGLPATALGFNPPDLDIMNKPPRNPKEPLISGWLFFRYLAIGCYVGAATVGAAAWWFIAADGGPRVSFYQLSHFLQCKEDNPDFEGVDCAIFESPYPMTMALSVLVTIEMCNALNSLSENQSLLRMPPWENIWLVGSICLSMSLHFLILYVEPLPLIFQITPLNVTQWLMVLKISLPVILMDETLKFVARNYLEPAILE

`c1ccc(-c2ccc(C(c3ccccc3)n3ccnc3)cc2)cc1` (stereo not shown) [bifonazole]: the “2CS FRET hit identification” value in data set [1] is given as “hits”.
Turning to `Clc1ccc(COC(Cn2ccnc2)c2ccc(Cl)cc2Cl)c(Cl)c1` (stereo not shown) [miconazole], in data set [2], the “Raman scattering, compound aggregation” value is given as “decreases inelastic light scattering (Raman band)”. Moreover, the ER calcium depletion entry in data set [3] (over 120 minutes) is given as “largest amount of ER calcium depletion”. For the same molecule, the “2CS FRET hit identification” value in data set [1] is reported as “hits”.
Take `C/C=C(/C)C(=O)O[C@H]1C(C)=C2[C@H]([C@@H]1OC(=O)CCCCCCC)[C@@](C)(OC(C)=O)C[C@H](OC(=O)CCC)[C@@]1(O)[C@H]2OC(=O)[C@@]1(C)O` [thapsigargin]: the EC50 in data set [3] (Homo sapiens, HEK293, 2 h, ER calcium depletion at 120 min time point, read-out: equilibrium constant of sigmoidal D1ER FRET response) was 1.97 nM; in data set [4] (read-out: EC50 of closed state mole fraction, global lifetime analysis, two-state model) it was 2.2 nM. The “T50 (rate of calcium depletion)” value in data set [3] was found to be 9.5 min. For the same molecule, the “reduction in FRET” value in data set [1] (50 nM thapsigargin, spectral mode, average of 32 wells) was 8%. Moreover, in data set [4] (50 nM thapsigargin, lifetime mode, versus donor-only control), the “reduction in FRET efficiency” value came out at 6%. Also, the “2CS structural equilibrium between open and closed states” value in data set [4] (global lifetime analysis) is “shifts this equilibrium substantially toward the open state”; in data set [4] (global lifetime analysis, listed as Thapsigargin), “greatly increasing the population of the more open and disordered structural state”. In addition, the “increase in the GFP lifetime” value in data set [4] (saturating concentration, 50 nM) amounted to 200 picosecond. For the same molecule, the Ki in data set [5] was 2 nM.
Consider `Oc1cc(Cl)ccc1Oc1ccc(Cl)cc1Cl` [triclosan], for which, in data set [6], the cytosolic calcium entry is on record as “increase cytosolic calcium”.
As for `Clc1ccccc1C(c1ccccc1)(c1ccccc1)n1ccnc1` [clotrimazole], the “2CS FRET hit identification” value in data set [1] is recorded as “hit”.
`CC(C)(C)c1cc(O)c(C(C)(C)C)cc1O` [BHQ, 1,4-dihydroxy-2,5-di-tert-butylbenzene]: the “T50 (rate of calcium depletion)” value in data set [3] came to 17.4 min.

A word on the Ki: it is a measure of affinity in units of concentration, obtained from inhibition or displacement.
